This is an account of results in patent US12459951B2, “Compounds that interact with RAS superfamily proteins for treatment of cancers, inflammatory diseases, rasopathies, and fibrotic disease” (SHY Therapeutics, LLC, priority 2022, dated 2025).

Bounds are passed on as bounds.

One assay concerns KRas wild type. The assay can be described thus: Ras GTP Binding Domain Inhibition Assay (Ras Superfamily Assay). The following applies: for KRas wild type + SOS: % inh.: with SOS; for KRas wild type: % inh.: without SOS. The method in brief: (§1)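 Ni-plate capture of His-tagged protein (10-30 μg/mL, o/n 4° C); cpd 20 μM or dilution series, 1% DMSO, 3 h RT ± Sos 556-1049 last h; 100 nM Cy-labelled GTP 45 min RT; 3× wash; fluorescence read.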

The next assay addresses T1, Rho-A (Homo sapiens, UniProt P61586).
T1 construct: made in house
The description is as above. The following applies: read-out: Rho-A: % inh.. The method in brief:
as §1

In a further assay the test system is KRas G12D mutant. The assay is described as above. The following applies: for KRas G12D mutant + SOS: % inh.: with SOS; for KRas G12D mutant: % inh.: without SOS. The method in brief:
as §1

Assay [1] concerns MiaPaca-2 (expressing KRAS G12C mutant). Briefly: Proliferation Assay (Cell Viability Assay). It counts as cell-based. The following applies: Homo sapiens, MIA PaCa-2; read-out: Proliferation in MiaPaca-2: IC50. The gist of the method: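 After 2–4 days' exposure at 37 °C, 5% CO2 to a single 10 μM final concentration or a dilution series (IC50), percent proliferation inhibition was derived from CellTiter 96 Aqueous One viability readings. The medium contained 0.3% DMSO and 10% FBS. KRAS G12C MiaPaca-2 cells were plated at 2000–5000/well the day before.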

T1 sequence (P61586 whole entry): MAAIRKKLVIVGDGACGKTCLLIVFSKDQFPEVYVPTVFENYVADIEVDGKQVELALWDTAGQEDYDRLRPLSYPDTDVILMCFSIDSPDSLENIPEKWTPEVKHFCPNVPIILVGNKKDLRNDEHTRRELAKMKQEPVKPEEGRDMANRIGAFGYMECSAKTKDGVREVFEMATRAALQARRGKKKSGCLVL

Regarding `Cc1c(-c2ccn(C(C)C)n2)cn2nc(-c3nccn3C)nc(Nc3ncco3)c12` [Compound 60, N-(6-(1-Isopropyl-1H-pyrazol-3-yl)-5-methyl-2-(1-methyl-1H-imidazol-2-yl)pyrrolo[2,1-f][1,2,4]triazin-4-yl)oxazol-2-amine], in the assay on KRas wild type (20 μM compound), the “KRas wild type + SOS: % inh.” value is on record as “A (A = 1-25% inhibition)” and the “KRas wild type: % inh.” value is “A (A = 1-25% inhibition)”. Besides, the inhibition at 20 µM at Rho-A lay within 1 to 25%. Besides, in the assay with KRas G12D mutant (20 μM compound), the “KRas G12D mutant + SOS: % inh.” value is reported as “A (A = 1-25% inhibition)” and the “KRas G12D mutant: % inh.” value is “A (A = 1-25% inhibition)”. The IC50 in assay [1] was over 1000 nM.
Turning to `COc1cccc(-c2cn3nc(-c4nccn4C)nc(N[C@H]4C[C@H](OC)C4)c3c2-c2ccn(C)n2)c1F` [Compound 47, 6-(2-Fluoro-3-methoxyphenyl)-N-((1r,3r)-3-methoxycyclobutyl)-2-(1-methyl-1H-imidazol-2-yl)-5-(1-methyl-1H-pyrazol-3-yl)pyrrolo[2,1-f][1,2,4]triazin-4-amine], in the assay on KRas wild type (20 μM compound), the “KRas wild type + SOS: % inh.” value is listed as 0 (0 = 0% inhibition) and the “KRas wild type: % inh.” value is 0 (0 = 0% inhibition). On Rho-A, the inhibition at 20 µM lay within 1 to 25%. Also, in the assay with KRas G12D mutant (20 μM compound), the “KRas G12D mutant + SOS: % inh.” value is “A (A = 1-25% inhibition)” and the “KRas G12D mutant: % inh.” value was “A (A = 1-25% inhibition)”. The IC50 in assay [1] is over 1000 nM.
Turning to `COc1cc(-c2cn3nc(-c4nccn4C)nc(Nc4cc(OC)ncn4)c3c2C)ccn1` [Compound 50, 6-(2-Methoxypyridin-4-yl)-N-(6-methoxypyrimidin-4-yl)-5-methyl-2-(1-methyl-1H-imidazol-2-yl)pyrrolo[2,1-f][1,2,4]triazin-4-amine], in the assay with KRas wild type (20 μM compound), the “KRas wild type + SOS: % inh.” value is “B (B = 26-49% inhibition)” and the “KRas wild type: % inh.” value was “C (C = 50-75% inhibition)”. Further, the inhibition at 20 µM on Rho-A was 50 to 75%. For the same compound, in the assay with KRas G12D mutant (20 μM compound), the “KRas G12D mutant + SOS: % inh.” value is on record as “C (C = 50-75% inhibition)” and the “KRas G12D mutant: % inh.” value is given as “C (C = 50-75% inhibition)”. Further, the IC50 in assay [1] is under 150 nM.
For `COc1cc(Nc2nc(-c3nccn3C)nn3cc(-c4ccn(C(C)C)n4)c(C)c23)n[nH]1` [Compound 51, 6-(1-Isopropyl-1H-pyrazol-3-yl)-N-(5-methoxy-1H-pyrazol-3-yl)-5-methyl-2-(1-methyl-1H-imidazol-2-yl)pyrrolo[2,1-f][1,2,4]triazin-4-amine], in the assay on KRas wild type (20 μM compound), the “KRas wild type + SOS: % inh.” value is listed as “C (C = 50-75% inhibition)” and the “KRas wild type: % inh.” value is given as “D (D = 76-100% inhibition)”. Besides, the inhibition at 20 µM at Rho-A fell in the range of 76 to 100%. Further, in the assay with KRas G12D mutant (20 μM compound), the “KRas G12D mutant + SOS: % inh.” value is given as “C (C = 50-75% inhibition)” and the “KRas G12D mutant: % inh.” value was “D (D = 76-100% inhibition)”. Further, the IC50 in assay [1] is over 1000 nM.
As to `COc1ccc(Nc2nc(-c3nccn3C)nn3cc(-c4ccn(C(C)C)n4)c(C)c23)nn1` [Compound 74, 6-(1-Isopropyl-1H-pyrazol-3-yl)-N-(6-methoxypyridazin-3-yl)-5-methyl-2-(1-methyl-1H-imidazol-2-yl)pyrrolo[2,1-f][1,2,4]triazin-4-amine], at Rho-A, the inhibition at 20 µM lay in the range of 26 to 49%. The IC50 in assay [1] was 150 to 500 nM.
Regarding `Cc1c(-c2ccn(C)n2)cn2nc(-c3nccn3C)nc(Oc3cc(N)[nH]n3)c12` [Compound 262, 3-((5-Methyl-2-(1-methyl-1H-imidazol-2-yl)-6-(1-methyl-1H-pyrazol-3-yl)pyrrolo[2,1-f][1,2,4]triazin-4-yl)oxy)-1H-pyrazol-5-amine], in the assay with KRas wild type (at 20 μM), the “KRas wild type + SOS: % inh.” value was “C (C = 50-75% inhibition)” and the “KRas wild type: % inh.” value is reported as “B (B = 26-49% inhibition)”. Further, in the assay on KRas G12D mutant (at 20 μM), the “KRas G12D mutant + SOS: % inh.” value was “D (D = 76-100% inhibition)” and the “KRas G12D mutant: % inh.” value is recorded as “D (D = 76-100% inhibition)”. Further, in assay [1], the IC50 is over 1000 nM.
For the compound `Cc1c(-c2ccn(C)n2)cn2nc(-c3nccn3C)nc(Nc3cc(C4CCC4)[nH]n3)c12` [Compound 257, N-(5-Cyclobutyl-1H-pyrazol-3-yl)-5-methyl-2-(1-methyl-1H-imidazol-2-yl)-6-(1-methyl-1H-pyrazol-3-yl)pyrrolo[2,1-f][1,2,4]triazin-4-amine], in the assay with KRas wild type (at 20 μM), the “KRas wild type + SOS: % inh.” value was “D (D = 76-100% inhibition)” and the “KRas wild type: % inh.” value is “C (C = 50-75% inhibition)”. Moreover, in the assay on KRas G12D mutant (at 20 μM), the “KRas G12D mutant + SOS: % inh.” value was “D (D = 76-100% inhibition)” and the “KRas G12D mutant: % inh.” value is “D (D = 76-100% inhibition)”. For the same compound, the IC50 in assay [1] lay in the range of 150 to 500 nM.
For the compound `Cc1c(-c2ccn(C)n2)cn2nc(-c3nccn3C)nc(Nc3cc(-c4ccncc4)[nH]n3)c12` [Compound 266, 5-Methyl-2-(1-methyl-1H-imidazol-2-yl)-6-(1-methyl-1H-pyrazol-3-yl)-N-(5-(pyridin-4-yl)-1H-pyrazol-3-yl)pyrrolo[2,1-f][1,2,4]triazin-4-amine], in the assay with KRas wild type (at 20 μM), the “KRas wild type + SOS: % inh.” value was “C (C = 50-75% inhibition)” and the “KRas wild type: % inh.” value is reported as “D (D = 76-100% inhibition)”. Also, in the assay on KRas G12D mutant (at 20 μM), the “KRas G12D mutant + SOS: % inh.” value was “D (D = 76-100% inhibition)” and the “KRas G12D mutant: % inh.” value is “D (D = 76-100% inhibition)”. The IC50 in assay [1] was under 150 nM.
Consider `Cc1c(-c2ccn(C)n2)cn2nc(-c3nccn3C)nc(Nc3cc(C(F)(F)F)[nH]n3)c12` [Compound 259, 5-Methyl-2-(1-methyl-1H-imidazol-2-yl)-6-(1-methyl-1H-pyrazol-3-yl)-N-(5-(trifluoromethyl)-1H-pyrazol-3-yl)pyrrolo[2,1-f][1,2,4]triazin-4-amine], for which, in the assay on KRas wild type (at 20 μM), the “KRas wild type + SOS: % inh.” value is recorded as “D (D = 76-100% inhibition)” and the “KRas wild type: % inh.” value is “C (C = 50-75% inhibition)”. Besides, in the assay with KRas G12D mutant (at 20 μM), the “KRas G12D mutant + SOS: % inh.” value is listed as “D (D = 76-100% inhibition)” and the “KRas G12D mutant: % inh.” value is recorded as “C (C = 50-75% inhibition)”. In assay [1], the IC50 is over 1000 nM.
In the case of `COc1ccnc(Nc2nc(-c3nccn3C)nn3cc(-c4ccn(C)n4)c(C4CC4)c23)c1` [Compound 276, 5-Cyclopropyl-N-(4-methoxypyridin-2-yl)-2-(1-methyl-1H-imidazol-2-yl)-6-(1-methyl-1H-pyrazol-3-yl)pyrrolo[2,1-f][1,2,4]triazin-4-amine], in the assay on KRas wild type (at 20 μM), the “KRas wild type + SOS: % inh.” value is “D (D = 76-100% inhibition)” and the “KRas wild type: % inh.” value was “D (D = 76-100% inhibition)”. Also, in the assay with KRas G12D mutant (at 20 μM), the “KRas G12D mutant + SOS: % inh.” value is “D (D = 76-100% inhibition)” and the “KRas G12D mutant: % inh.” value is reported as “D (D = 76-100% inhibition)”. The IC50 in assay [1] was 150 to 500 nM.
For `Cc1c(-c2ccn(C)n2)cn2nc(-c3nccn3C)nc(Nc3cc[nH]n3)c12` [Compound 256, 5-Methyl-2-(1-methyl-1H-imidazol-2-yl)-6-(1-methyl-1H-pyrazol-3-yl)-N-(1H-pyrazol-3-yl)pyrrolo[2,1-f][1,2,4]triazin-4-amine], in the assay on KRas wild type (at 20 μM), the “KRas wild type + SOS: % inh.” value is reported as “D (D = 76-100% inhibition)” and the “KRas wild type: % inh.” value is “A (A = 1-25% inhibition)”. In addition, in the assay on KRas G12D mutant (at 20 μM), the “KRas G12D mutant + SOS: % inh.” value is listed as “D (D = 76-100% inhibition)” and the “KRas G12D mutant: % inh.” value is recorded as “D (D = 76-100% inhibition)”. Moreover, the IC50 in assay [1] is over 1000 nM.
